The source of these data is BindingDB's records for doi:10.7270/Q27W69N8 (Srmlsc, 2009).

Broadly, the IC50 is the concentration that inhibits the measured activity by half. Low readings indicate inhibition by little substance, high ones a need for much substance.

SMILES strings stand for the structures.

The experiment has as its target T1, M17 leucyl aminopeptidase (Plasmodium falciparum (isolate 3D7), UniProt Q8IL11).
T1 sequence (Q8IL11 whole entry): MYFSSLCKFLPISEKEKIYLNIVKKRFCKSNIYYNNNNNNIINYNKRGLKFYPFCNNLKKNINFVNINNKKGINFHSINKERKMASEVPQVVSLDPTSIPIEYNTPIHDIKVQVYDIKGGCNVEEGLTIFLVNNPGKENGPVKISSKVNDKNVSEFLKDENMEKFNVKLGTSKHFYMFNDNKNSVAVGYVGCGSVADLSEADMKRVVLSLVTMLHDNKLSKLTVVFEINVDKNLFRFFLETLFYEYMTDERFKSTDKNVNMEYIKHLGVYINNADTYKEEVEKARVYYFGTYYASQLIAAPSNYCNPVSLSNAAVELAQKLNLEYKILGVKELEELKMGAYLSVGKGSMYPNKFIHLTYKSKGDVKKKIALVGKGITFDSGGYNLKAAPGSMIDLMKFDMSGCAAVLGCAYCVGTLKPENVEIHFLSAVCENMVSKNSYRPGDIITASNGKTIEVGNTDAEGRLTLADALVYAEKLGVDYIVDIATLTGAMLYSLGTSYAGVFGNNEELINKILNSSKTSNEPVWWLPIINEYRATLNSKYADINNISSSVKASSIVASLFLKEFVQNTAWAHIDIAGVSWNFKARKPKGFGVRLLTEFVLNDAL
The experiment can be described thus: P. falciparum M17LAP inhibitors, primary screen, biochemical, fluorogenic H-Leu-NHMec substrate, 1536-well (AID 1619).
`CN1C(=O)/C(=C/c2ccc(-c3ccccc3[N+](=O)[O-])o2)S/C1=N/c1ccc(Cl)c(C(=O)O)c1` [2-Chloro-5-[3-methyl-5-[1-[5-(2-nitro-phenyl)-furan-2-yl]-meth-(Z)-ylidene]-4-oxo-thiazolidin-(2Z)-ylideneamino]-benzoic acid] came in with an IC50 of 6.24 µM.

Compound `Cc1ccc(-c2n[nH]c3c2C(c2cccnc2)C(C#N)C(=N)O3)cc1` (stereo not given) [6-amino-3-(4-methylphenyl)-4-pyridin-3-yl-1,4-dihydropyrano[2,3-c]pyrazole-5-carbonitrile] returned an IC50 of 25.8 µM.

For the compound `CC(C)(C)c1ccc(CN=Nc2ccc(C(=O)O)cc2)cc1`, the IC50 turned out to be 13.3 µM.

With `Cc1ccc(SCc2cc(=O)[nH][nH]2)cc1` [5-p-Tolylsulfanylmethyl-2,4-dihydro-pyrazol-3-one], 1.77 µM corresponded to half-maximal inhibition (IC50).

`COc1cc(CN=Nc2ccc(Cl)c(C(=O)O)c2)ccc1OC(=O)c1cccs1`: the IC50 was found to be 55.5 µM.

With `CCCc1[nH]nc2c1C(CCc1ccccc1)C(C#N)C(=N)O2` (stereo not given) [6-azanyl-4-(2-phenylethyl)-3-propyl-2,4-dihydropyrano[2,3-c]pyrazole-5-carbonitrile], half-maximal inhibition (IC50) was put at 55.7 µM.

With `Cc1cc(-c2n[nH]c3c2C(c2cccc(O)c2)C(C#N)C(=N)O3)c(C)s1` (stereo not given) [SMR000136653], the IC50 stood at 52.8 µM.

Consider `CCOc1ccccc1C1c2c(-c3ccccc3)noc2N=C(N)C1C#N` (stereo not given) [6-amino-4-(2-ethoxyphenyl)-3-phenyl-2,4-dihydroisoxazolo[5,4-b]pyridine-5-carbonitrile], for which the half-inhibitory concentration (IC50) was determined as 52.7 µM.

The compound `Cc1ccc(-c2n[nH]c3c2C(c2ccsc2)C(C#N)C(=N)O3)cc1` (stereo not given) [SMR000143666] returned an IC50 of 11.3 µM.

For `O=NCc1cn(CC(=O)N2CCOCC2)c2ccccc12` [2-[3-(hydroxyiminomethyl)indol-1-yl]-1-morpholin-4-ylethanone], the IC50 is 78.9 µM.

Regarding `O=C(O)c1ccc(N=NCc2ccc(C(F)(F)F)cc2)cc1` [sulfuric acid;4-[(N'E)-N'-[4-(trifluoromethyl)benzylidene]hydrazino]benzoic acid], the IC50 came out at 46.3 µM.

As to `Cc1[nH][nH]c(=O)c1CCC(=O)NN=Cc1ccc(Cl)cc1`, 52.6 µM corresponded to half-maximal inhibition (IC50).

Consider `COc1ccc(NC(=O)CSc2nc(C)cc(=O)[nH]2)cc1` [N-(4-methoxyphenyl)-2-[(4-methyl-6-oxo-5H-pyrimidin-2-yl)sulfanyl]acetamide], for which the midpoint of inhibition, the IC50, lay at 3.09 µM.

Consider `Cc1ccc(SCc2n[nH]c3c2C2(CCSCC2)C(C#N)C(=N)O3)cc1` (stereo not given) [6-amino-3-[(4-methylphenyl)sulfanylmethyl]spiro[2H-pyrano[2,3-c]pyrazole-4,4'-thiane]-5-carbonitrile], for which the half-inhibitory concentration (IC50) stood at 91 µM.

For `COc1cccc(-c2n[nH]c3c2C(c2ccoc2)C(C#N)C(=N)O3)c1` (stereo not given) [MLS000558215], the IC50 was determined as 76.8 µM.

In turn, `COc1ccc2sc(-n3c(O)c4c(c3O)CC(C)=CC4)nc2c1` had an IC50 of 35 µM.

As for `O=C(Cc1cc(=O)[nH][nH]1)NN=Cc1cccc(Cl)c1Cl`, the IC50 was found to be 103 µM.

The compound `N#CC1C(=N)Oc2[nH]nc(-c3ccc(F)cc3)c2C1c1cccnc1` (stereo not given) [MLS000043841] yielded an IC50 of 61.2 µM.

As to `O=NCc1ccc(OCc2ccccc2)c(C(=O)O)c1` [5-(hydroxyiminomethyl)-2-phenylmethoxybenzoic acid], half-maximal inhibition (IC50) was put at 16.4 µM.

Regarding `Cc1cc(CN=Nc2ccc([N+](=O)[O-])cn2)c(C)n1-c1ccc(C(=O)O)cc1` [4-{2,5-dimethyl-3-[2-(5-nitro-2-pyridinyl)carbonohydrazonoyl]-1H-pyrrol-1-yl}benzoic acid], the IC50 was 12.7 µM.

The compound `N#CC1C(=N)Oc2[nH]nc(-c3ccc(F)cc3)c2C1c1ccncc1` (stereo not given) [6-amino-3-(4-fluorophenyl)-4-pyridin-4-yl-2,4-dihydropyrano[2,3-c]pyrazole-5-carbonitrile] displayed an IC50 of 94.3 µM.

Take `Cc1ccc(-c2n[nH]c3c2C(C)C(C#N)C(=N)O3)cc1` (stereo not given) [6-amino-4-methyl-3-(4-methylphenyl)-2,4-dihydropyrano[2,3-c]pyrazole-5-carbonitrile]: half-maximal inhibition (IC50) was put at 16.3 µM.

`Cc1[nH][nH]c(=O)c1CCC(=O)NN=Cc1cccc(Cl)c1` [N'-[(1Z)-(3-chlorophenyl)methylene]-3-(3-methyl-5-oxo-4,5-dihydro-1H-pyrazol-4-yl)propanohydrazide] yielded an IC50 of 20.9 µM.

Regarding `CC(C)(C)OC(=O)C1=[N+]2N[CH-]c3ccccc3C2C2(C(=O)c3ccccc3C2=O)[C@H]1c1ccc([N+](=O)[O-])cc1` (stereo partly drawn) [(2R,3R)-2-(4-nitrophenyl)-1',3'-dioxo-3-spiro[3,10b-dihydro-2H-pyrrolo[2,1-a]phthalazine-1,2'-indene]carboxylic acid tert-butyl ester], the IC50 turned out to be 2.23 µM.

The compound `CC(=NNC(=O)Cc1c(C)[nH][nH]c1=O)c1ccco1` [MLS000723689] displayed an IC50 of 12.3 µM.

In turn, `C=c1cc2[nH]c(=O)c(=Cc3cccn3CCCOc3ccc(OC)cc3)c(=N)n2o1` displayed an IC50 of 10.9 µM.

As for `CCOc1ccc(-n2c(O)cc(Sc3nnc(-c4ccccc4)[nH]3)c2O)cc1` [MLS000765380], the IC50 came out at 11.1 µM.

`CC(C=NNC(=O)Cc1c(C)[nH][nH]c1=O)=Cc1ccccc1` [2-(3-methyl-5-oxidanylidene-1,4-dihydropyrazol-4-yl)-N-[[(E)-2-methyl-3-phenyl-prop-2-enylidene]amino]ethanamide] yielded an IC50 of 52.8 µM.

`CC(=NNC(=O)CCc1c(C)[nH][nH]c1=O)c1ccccc1` [3-(3-methyl-5-oxidanylidene-1,4-dihydropyrazol-4-yl)-N-(1-phenylethylideneamino)propanamide]: the IC50 is 36.6 µM.

The compound `CN(C)c1ccc(/N=N/c2ccccc2C(=O)OCC(=O)N(C)C2CCCCC2)cc1` [[2-[cyclohexyl(methyl)amino]-2-oxidanylidene-ethyl] 2-[[4-(dimethylamino)phenyl]diazenyl]benzoate] had an IC50 of 15.2 µM.

For the compound `COc1ccccc1C=CC=NNC(=O)CCc1c(C)[nH][nH]c1=O` [3-(3-Methyl-5-oxo-4,5-dihydro-1H-pyrazol-4-yl)-propionic acid [(E)-3-(2-methoxy-phenyl)-prop-2-en-(E)-ylidene]-hydrazide], the IC50 worked out at 57.2 µM.

`N#CC1C(=N)Oc2nc(-c3ccccc3)[nH]c2C1c1cccnc1` (stereo not given) [5-amino-2-phenyl-7-pyridin-3-yl-3,7-dihydropyrano[2,3-d]imidazole-6-carbonitrile] showed an IC50 of 66.6 µM.

With `O=C(Nn1c(O)csc1=S)C(=O)Nn1c(O)csc1=S` [SMR000349781], it took 20.5 µM to reach half-maximal inhibition (IC50).

Compound `CC(CC1CC(C)(C)OC1=O)N=Nc1nc(-c2ccccc2)cs1` (stereo not given) [SMR000220752] came in with an IC50 of 52.8 µM.

`O=C1CCCC2=Nc3[nH]c(=S)[nH]c(=O)c3C(c3ccc(Br)cc3)C12` (stereo not given) [5-(4-bromophenyl)-2-thioxo-2,3,5,8,9,10-hexahydropyrimido[4,5-b]quinoline-4,6(1H,7H)-dione] returned an IC50 of 16.7 µM.

In the case of `C=CCOc1c(OC)cc(CN=Nc2cccc(C(=O)O)c2)c(Br)c1Br`, the IC50 is 1 µM.

`CC(=O)N1CCC2(CC1)c1c(CSc3ccc(C)cc3)n[nH]c1OC(=N)C2C#N` (stereo not given) [SMR000036525] displayed an IC50 of 21.1 µM.

The compound `O=C1C=C/C(=C/NN2C(=O)C3C4C=CC(CC4)C3C2=O)C=C1O` (stereo not given) [SMR000207592] returned a concentration for half-maximal inhibition (IC50) of 34.3 µM.

In turn, `Cc1[nH][nH]c(=O)c1CCC(=O)NN=Cc1ccco1` returned an IC50 of 69.2 µM.

For the compound `CCOC(O)c1oc2c(c(=O)c1-c1nncn1-c1ccccc1)C=CC(=O)C2=O` (stereo not given) [ethyl 7,8-dihydroxy-4-oxo-3-(4-phenyl-4H-1,2,4-triazol-3-yl)-4H-chromene-2-carboxylate], the IC50 was found to be 6.58 µM.

For `C/C(=C\c1ccco1)C1c2c(-c3ccccc3)n[nH]c2OC(=N)C1C#N` (stereo not given) [6-amino-4-[(E)-1-(furan-2-yl)prop-1-en-2-yl]-3-phenyl-2,4-dihydropyrano[2,3-c]pyrazole-5-carbonitrile], half-maximal inhibition (IC50) was put at 83.7 µM.

For `Cc1nc2c([nH]1)C1(CCN(Cc3ccccc3)CC1)C(C#N)C(=N)O2` (stereo not given) [MLS000047918], half-maximal inhibition (IC50) required 63.2 µM.

`COc1cccc(C=NNC(=O)Cc2c(C)[nH][nH]c2=O)c1OC` [SMR000147373]: it took 23.5 µM to reach half-maximal inhibition (IC50).

`Cc1noc(NS(=O)(=O)c2ccc(N=CCC(=O)c3ccc4c(c3)OCO4)cc2)c1C` [4-[[(Z)-3-(1,3-benzodioxol-5-yl)-3-oxoprop-1-enyl]amino]-N-(3,4-dimethyl-5-isoxazolyl)benzenesulfonamide] showed an IC50 of 13.9 µM.

With `COc1ccc(NC(=O)CSc2cc(O)n(-c3ccc4c(c3)OCCO4)c2O)cc1` [2-[1-(2,3-dihydro-1,4-benzodioxin-6-yl)-2,5-bis(oxidanylidene)pyrrolidin-3-yl]sulfanyl-N-(4-methoxyphenyl)ethanamide], the IC50 is 16.1 µM.

In turn, `Cc1ccc(-c2n[nH]c3c2C(c2ccoc2)C(C#N)C(=N)O3)cc1C` (stereo not given) [SMR000078160] registered an IC50 of 3.65 µM.

Consider `Cc1[nH][nH]c(=O)c1CCC(=O)NN=CC=Cc1ccccc1`, for which half-maximal inhibition (IC50) required 51.4 µM.

Take `Cc1[nH][nH]c(=O)c1CCC(=O)NN=Cc1ccc(Cl)c(Cl)c1`: the half-maximal inhibitory concentration (IC50) was 15 µM.

In turn, `CCOC(=O)C1C(=O)C(=Cc2ccc(OCC(=O)O)c(OCC)c2)SC1=Nc1ccc(C)cc1` (stereo not given) [(2-ethoxy-4-{[4-(ethoxycarbonyl)-5-[(4-methylphenyl)amino]-3-oxo-2(3H)-thienylidene]methyl}phenoxy)acetic acid] displayed an IC50 of 15.6 µM.

`CC(=NNC(=O)Cc1c(C)[nH][nH]c1=O)c1cccs1` [SMR000305285] had an IC50 of 3.56 µM.
